Reference: patent US20070248619A1, “New pharmaceutical composition from natural materials for regulating immunity, its preparation method and use” (priority 2006, published 2007)
Where “and” joins values, the source holds several entries; their conditions need not be identical. Identical values can stand only once.

Tests used:
[1] = Clinical trial in type 2 diabetes patients; format: in vivo, human; details: 52 cases per group
Description: According to diagnostic criteria of diabetes by WHO(1985), 104 diabetes patients were diagnosed to have type 2 diabetes. Wherein, 56 patients were male and 48 patients were female at average age of […]. All of them had diabetes for […] years. They were divided into two groups at random:
Group A: treatment group administrated the granules of example 1
Group B: control group administrated Micronase (produced by Shandong Boshan Pharmaceutical Factory, Batch: 990917)
Control group: Micronase was orally taken at 30 minutes before meal in three times per day and 2.5 mg(tablet) each time.

[2] = tested on: C8166 cells; format: cell-based
Description: 50□1 medium was added into half of the holes on the culture plate and 50□1 diluted supernatant fluid of HIV-1, in which the value of M.O.I was 0.0089, was added into the other half of the holes on the culture plate. At the same time, the blank control holes without the drug (the negative control) were set and the control culture holes with positive drug AZT (the positive control) were set too. They were put into 5%CO2 incubator under 37 °C for three days. The survival rate of cells was determined by MTT method. OD values (595 nm/630 nm) were determined by ELx800ELISA Reader. The following formulae were used to calculate the survival rate of normal cells caused by the drug and the protective rate of the drug for HIV-1-infected cells. Survival rate of normal cells (%) =OD value of the experimental hole/OD value of negative control hole □ 100%

[3] = tested on: C8166 cells; format: cell-based; details: C8166, three days, MTT; one value per date of experiment
[4] = tested on: HIV-1; details: HIV-1-infected C8166, three days, MTT
Description: 50□1 medium was added into half of the holes on the culture plate and 50□1 diluted supernatant fluid of HIV-1, in which the value of M.O.I was 0.0089, was added into the other half of the holes on the culture plate. At the same time, the blank control holes without the drug (the negative control) were set and the control culture holes with positive drug AZT (the positive control) were set too. They were put into 5%CO2 incubator under 37 °C for three days. The survival rate of cells was determined by MTT method. OD values (595 nm/630 nm) were determined by ELx800ELISA Reader. […] Survival rate of normal cells (%) =OD value of the experimental hole/OD value of negative control hole □ 100%
Protective rate of infected cells (%)=(OD value of the experimental hole—OD value of positive control hole)/(OD value of negative control hole—OD value of positive control hole) □ 100%

[5] = tested on: HIV-1; details: C8166 + HIV-1, M.O.I 0.0089, three days; one value per date of experiment
Description: 50□1 diluted supernatant fluid of HIV-1 was added to the mixture and the value of M.O.I was 0.0089. At the same time, the control hole without the drug and the control hole with positive drug AZT were set. They were put into 5%CO2 incubator under 37? for three days. The amount of syncytium was counted under an inverted microscope (100×□) (in five visual fields). IC50, that is, the concentration of the drugs inhibiting 50% syncytium formation, was determined.

Row | SMILES | blood sugar at 2 hours after meal, mean before therapy ([1]; baseline) | fasting blood sugar, mean before therapy ([1]; baseline) | blood sugar at 2 hours after meal, mean after therapy ([1]; therapy for 3 months) | fasting blood sugar, mean after therapy ([1]; therapy for 3 months) | TC50 obtained by protective experiment (toxic effects on normal cells) [2] | TC50 (concentration causing the death of 50% the cells) [3] | IC50 (EC50 of protective effects on infected cells) [4] | IC50 inhibiting syncytium formation (head prints TC50) [5]
1 | COc1ccc(Cl)cc1C(=O)NCCc1ccc(S(=O)(=O)NC(=O)NC2CCCCC2)cc1 [Micronase] | 14.67 ± 1.49 | 9.53 ± 1.46 | 12.14 ± 2.53 | 6.53 ± 1.53 | – | – | – | –
2 | Cc1cn([C@H]2C[C@H](N=[N+]=[N-])[C@@H](CO)O2)c(=O)[nH]c1=O [AZT] | – | – | – | – | >50 µg/mL | >50 µg/mL | 0.15 µg/mL | 0.23 µg/mL and 0.18 µg/mL
